According to patent US10889581B2, “Cyclopropyl fused thiazine derivatives as beta-secretase inhibitors and methods of use” (AMGEN INC., priority 2016, dated 2021):

Tests used:
BACE1 [1] = target: T1, BACE1 (Homo sapiens (Human), UniProt P56817); test: In vitro enzymatic BACE1 FRET assay; type: biochemical; conditions: pH 4.5, read-out: BACE1 Enzyme IC50
Target sequence in this assay (P56817 46-501): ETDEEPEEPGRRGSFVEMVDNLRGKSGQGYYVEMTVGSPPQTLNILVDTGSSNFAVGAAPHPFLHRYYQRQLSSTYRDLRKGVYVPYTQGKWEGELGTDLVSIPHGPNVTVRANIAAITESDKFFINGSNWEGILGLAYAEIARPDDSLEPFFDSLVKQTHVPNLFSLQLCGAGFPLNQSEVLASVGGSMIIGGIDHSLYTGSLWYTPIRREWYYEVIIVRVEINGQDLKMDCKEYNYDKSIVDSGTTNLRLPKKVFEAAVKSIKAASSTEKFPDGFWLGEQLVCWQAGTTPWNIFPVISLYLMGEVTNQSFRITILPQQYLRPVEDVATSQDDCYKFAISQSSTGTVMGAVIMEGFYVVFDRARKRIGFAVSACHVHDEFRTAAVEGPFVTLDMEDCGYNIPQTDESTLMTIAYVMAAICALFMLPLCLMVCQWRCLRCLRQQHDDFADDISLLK

BACE1 [2] = target: T1, BACE1; test: In vitro BACE1 cell-based assay (Aβ40 in conditioned medium of cells stably expressing APP, HTRF)
Method: In Vitro BACE1 Cell-Based Assay
The cell-based assay measures inhibition or reduction of Aβ40 in conditioned medium of test compound treated cells expressing amyloid precursor protein. Cells stably expressing Amyloid Precursor Protein (APP) were plated at a density of 45K cells/well in 384 well plates (Corning/BioCoat 354663). The test compounds were then added to cells in 22-point dose response concentrations with the starting concentration being 62.5 μM. The compounds were diluted from stock solutions in DMSO and the final DMSO concentration of the test compounds on cells was 0.625%. The cells were cultivated overnight at 37° C. and 5% CO2 in DMEM supplemented with 10% FBS. After 24 h of incubation with the test compounds, the conditioned media was collected and the Aβ40 levels were determined using HTRF (Homogeneous Time Resolved Fluorescence). The IC50 of the compound was calculated from the percent of control or percent inhibition of Aβ40 as a function of the concentration of the test compound.
The HTRF to detect Aβ40 was performed in 384 well plates (Costar 3658). The antibody pair that were used to detect Aβ40 from cell supernatants were ConfAb40 antibody (Amgen in-house) and biotinylated 6E10 (BIOLEGEND). As an alternative to ConfAb40, a commercially available antibody, Anti-beta Amyloid 1-40 antibody [BDI350] from Abcam, Cambridge, Mass. 02139-1517 (Product code: ab20068), may be used in this assay. The concentrations were 0.35 μg/mL of ConfAb40 antibody and 1.33 μg/mL of 6E10-biotinylated antibody, as well as 4.5 μg/mL of Streptavidin Allophycocyanin Conjugate (ThermoFisher Scientific) in HTRF Buffer ([…], 1% BSA, 0.5% Tween 20).
The conditioned media was incubated with above antibodies and Streptavidin Allophycocyanin Conjugate for 30-60 minutes at 23° C. The final readout was performed on Envision from PerkinElmer.
Target sequence in this assay (P56817 46-501, species assumed): as the sequence (P56817 46-501) above

human recombinant BACE2 = human recombinant BACE2 (Homo sapiens (Human), UniProt Q9Y5Z0); test: In vitro enzymatic BACE2 FRET assay; type: biochemical; conditions: pH 4.5, read-out: BACE2 Enzyme IC50
human recombinant BACE2, sequence (Q9Y5Z0 63-518): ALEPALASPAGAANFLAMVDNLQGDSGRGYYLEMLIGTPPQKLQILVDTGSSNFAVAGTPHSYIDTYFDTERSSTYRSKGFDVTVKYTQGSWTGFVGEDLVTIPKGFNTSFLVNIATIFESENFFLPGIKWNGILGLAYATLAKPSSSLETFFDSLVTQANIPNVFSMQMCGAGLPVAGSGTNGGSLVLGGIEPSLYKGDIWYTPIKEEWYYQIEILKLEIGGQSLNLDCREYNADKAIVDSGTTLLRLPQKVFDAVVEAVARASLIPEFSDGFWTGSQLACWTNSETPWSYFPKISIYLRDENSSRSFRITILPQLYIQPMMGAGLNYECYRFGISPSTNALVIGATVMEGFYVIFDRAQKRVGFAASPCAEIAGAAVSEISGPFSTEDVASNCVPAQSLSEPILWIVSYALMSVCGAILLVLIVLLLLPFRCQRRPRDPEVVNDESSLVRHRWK

Recombinant CatD = Recombinant CatD (Homo sapiens (Human), UniProt P07339); test: In vitro enzymatic Cathepsin D (CatD) FRET assay; type: biochemical; conditions: pH 3.5, read-out: Cat D Enzyme IC50
Recombinant CatD, sequence (P07339 65-412): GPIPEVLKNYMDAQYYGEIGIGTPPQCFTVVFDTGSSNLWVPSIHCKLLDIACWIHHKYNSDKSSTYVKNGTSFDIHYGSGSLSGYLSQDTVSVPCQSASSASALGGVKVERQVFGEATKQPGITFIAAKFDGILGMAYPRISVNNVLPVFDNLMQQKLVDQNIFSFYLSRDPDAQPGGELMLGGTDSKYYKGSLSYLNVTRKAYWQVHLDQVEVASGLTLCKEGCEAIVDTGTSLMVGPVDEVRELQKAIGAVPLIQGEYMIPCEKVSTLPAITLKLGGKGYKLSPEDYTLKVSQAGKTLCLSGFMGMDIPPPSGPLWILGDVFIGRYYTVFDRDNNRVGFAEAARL

[3] = Aβ40, 24 h incubation, read-out: BACE1 Cell IC50

Row | IC50 (BACE1 [2]; [3]) | Compound | IC50 (BACE1 [1]) | IC50 (human recombinant BACE2) | IC50 (Recombinant CatD) | IC50 (BACE1 [2])
1 | 0.677 µM | C[C@]1(c2cc(C#Cc3ccc(C#N)cn3)cnc2F)N=C(N)S[C@@]2(CF)C[C@H]21 [Example 114, 6-((5-((1S,5S,6S)-3-amino-1-(fluoromethyl)-5-methyl-2-thia-4-azabicyclo[4.1.0]hept-3-en-5-yl)-6-fluoropyridin-3-yl)ethynyl)nicotinonitrile] | 0.637 µM | 3.37 µM | > 400 µM | –
2 | 0.118 µM | N#Cc1ccc(C#Cc2ccc(F)c([C@@]3(CF)N=C(N)S[C@@]4(Cn5ccnc5)C[C@H]43)c2)nc1 [Example 125, 6-((3-((1S,5S,6S)-1-((1H-imidazol-1-yl)methyl)-3-amino-5-(fluoromethyl)-2-thia-4-azabicyclo[4.1.0]hept-3-en-5-yl)-4-fluorophenyl)ethynyl)nicotinonitrile] | 0.583 µM | 8.08 µM | 248 µM | –
3 | – | CN(C)C(=O)[C@]12C[C@H]1[C@@](C)(c1cc(C#Cc3ccc(C#N)cc3)ccc1F)N=C(N)S2 [Example 129, (1S,5S,6S)-3-amino-5-(5-((4-cyanophenyl)ethynyl)-2-fluorophenyl)-N,N,5-trimethyl-2-thia-4-azabicyclo[4.1.0]hept-3-ene-1-carboxamide] | 0.007 µM | 0.251 µM | 289 µM | 0.058 µM
4 | – | Cc1cc(C#N)cnc1C#Cc1cnc(F)c([C@@]2(C)N=C(N)S[C@@]3(C(=O)N4CCCC4)CC32)c1 (stereo partly drawn) [Example 137, 6-((5-((1S,5S)-3-amino-5-methyl-1-(pyrrolidine-1-carbonyl)-2-thia-4-azabicyclo[4.1.0]hept-3-en-5-yl)-6-fluoropyridin-3-yl)ethynyl)-5-methylnicotinonitrile] | 0.011 µM | 0.474 µM | > 400 µM | 0.035 µM
5 | 0.355 µM | C[C@]1(c2cc(C#Cc3ccc(C#N)cn3)ccc2F)N=C(N)S[C@]2(CO)[C@H]1C2(F)F [Example 110, 6-((3-((1S,5S,6R)-3-amino-7,7-difluoro-1-(hydroxymethyl)-5-methyl-2-thia-4-azabicyclo[4.1.0]hept-3-en-5-yl)-4-fluorophenyl)ethynyl)nicotinonitrile] | 0.047 µM | 2.08 µM | 1160 µM | –
6 | – | NC1=N[C@](CF)(c2cc(C#Cc3cc(Cl)ccn3)ccc2F)[C@@H]2C[C@]2(CF)S1 [Example 138, (1S,5S,6S)-5-(5-((4-chloropyridin-2-yl)ethynyl)-2-fluorophenyl)-1,5-bis(fluoromethyl)-2-thia-4-azabicyclo[4.1.0]hept-3-en-3-amine] | 1.12 µM | 0.077 µM | 903 µM | 4.85 µM
7 | 0.142 µM | Cc1cn(C[C@]23C[C@H]2[C@@](CF)(c2cc(C#Cc4ccc(C#N)cn4)ccc2F)N=C(N)S3)nn1 [Example 115, 6-((3-((1S,5S,6S)-3-amino-5-(fluoromethyl)-1-((4-methyl-1H-1,2,3-triazol-1-yl)methyl)-2-thia-4-azabicyclo[4.1.0]hept-3-en-5-yl)-4-fluorophenyl)ethynyl)nicotinonitrile] | 0.109 µM | 2.18 µM | 1030 µM | –
8 | 0.372 µM | N#C/C=C/[C@]12C[C@H]1[C@@](CF)(c1cc(C#Cc3ccc(C#N)cn3)ccc1F)N=C(N)S2 [Example 107, 6-((3-((1R,5S,6S)-3-amino-1-((E)-2-cyanovinyl)-5-(fluoromethyl)-2-thia-4-azabicyclo[4.1.0]hept-3-en-5-yl)-4-fluorophenyl)ethynyl)nicotinonitrile] | 0.047 µM | 2.55 µM | 239 µM | –
9 | 0.06 µM | N#Cc1ccc(C#Cc2ccc(F)c([C@@]3(CF)N=C(N)S[C@@]4(CCC(=O)N5CCOCC5)C[C@H]43)c2)nc1 [Example 119, 6-((3-((1S,5S,6S)-3-amino-5-(fluoromethyl)-1-(3-morpholino-3-oxopropyl)-2-thia-4-azabicyclo[4.1.0]hept-3-en-5-yl)-4-fluorophenyl)ethynyl)nicotinonitrile] | 0.049 µM | 0.126 µM | 188 µM | –
10 | 0.129 µM | N#Cc1ccc(C#Cc2ccc(F)c([C@@]3(CF)N=C(N)S[C@@]4(CO)C[C@H]43)c2)nc1 [Example 100, 6-((3-((1S,5S,6S)-3-amino-5-(fluoromethyl)-1-(hydroxymethyl)-2-thia-4-azabicyclo[4.1.0]hept-3-en-5-yl)-4-fluorophenyl)ethynyl)nicotinonitrile] | 0.08 µM | 4.55 µM | 4870 µM | –
11 | 0.623 µM | N#CC[C@]12C[C@H]1[C@@](CF)(c1cc(C#Cc3ccc(C#N)cn3)ccc1F)N=C(N)S2 [Example 106, 6-((3-((1R,5S,6S)-3-amino-1-(cyanomethyl)-5-(fluoromethyl)-2-thia-4-azabicyclo[4.1.0]hept-3-en-5-yl)-4-fluorophenyl)ethynyl)nicotinonitrile] | 0.084 µM | 4.73 µM | 614 µM | –
12 | 0.052 µM | Cc1cc(C#N)cnc1C#Cc1ccc(F)c([C@@]2(CF)N=C(N)S[C@@]3(CCC(=O)N4CCOCC4)C[C@H]32)c1 [Example 120, 6-((3-((1S,5S,6S)-3-amino-5-(fluoromethyl)-1-(3-morpholino-3-oxopropyl)-2-thia-4-azabicyclo[4.1.0]hept-3-en-5-yl)-4-fluorophenyl)ethynyl)-5-methylnicotinonitrile] | 0.011 µM | 0.179 µM | 190 µM | –
13 | – | COC[C@]12CC1[C@@](C)(c1cc(C#Cc3ncc(Cl)cc3C)ccc1F)N=C(N)S2 (stereo partly drawn) [Example 134, (1S,5S)-5-(5-((5-chloro-3-methylpyridin-2-yl)ethynyl)-2-fluorophenyl)-1-(methoxymethyl)-5-methyl-2-thia-4-azabicyclo[4.1.0]hept-3-en-3-amine] | – | – | – | 0.951 µM

Row | Compound | IC50 (BACE1 [2]; [3]) | IC50 (BACE1 [1]) | IC50 (human recombinant BACE2) | IC50 (Recombinant CatD) | IC50 (BACE1 [2])
14 | Cc1cc(C#N)cnc1C#Cc1ccc(F)c([C@@]2(C)N=C(N)S[C@@]3(C(=O)N(C)C)C[C@H]32)c1 [Example 123, (1S,5S,6S)-3-amino-5-(5-((5-cyano-3-methyl-2-pyridinyl)ethynyl)-2-fluorophenyl)-N,N,5-trimethyl-2-thia-4-azabicyclo[4.1.0]hept-3-ene-1-carboxamide] | 0.003 µM | 0.003 µM | 0.099 µM | 236 µM | –
15 | C#CCOc1ccc(C#Cc2ccc(F)c([C@@]3(C)N=C(N)S[C@@]4(C(=O)N(C)C)C[C@H]43)c2)nc1 [Example 130, (1S,5S,6S)-3-amino-5-(2-fluoro-5-((5-(2-propyn-1-yloxy)-2-pyridinyl)ethynyl)phenyl)-N,N,5-trimethyl-2-thia-4-azabicyclo[4.1.0]hept-3-ene-1-carboxamide] | 0.152 µM | 0.161 µM | 0.432 µM | 926 µM | –
16 | Cc1cc(C#N)cnc1C#Cc1ccc(F)c([C@@]2(CF)N=C(N)S[C@@]3(CF)C[C@H]32)c1 [Example 104, 6-((3-((1S,5S,6S)-3-amino-1,5-bis(fluoromethyl)-2-thia-4-azabicyclo[4.1.0]hept-3-en-5-yl)-4-fluorophenyl)ethynyl)-5-methylnicotinonitrile] | 0.231 µM | 0.038 µM | 2.28 µM | 1300 µM | –
17 | N#Cc1cnc(C#Cc2ccc(F)c([C@@]3(CF)N=C(N)S[C@@]4(CF)C[C@H]43)c2)cn1 [Example 103, 5-((3-((1S,5S,6S)-3-amino-1,5-bis(fluoromethyl)-2-thia-4-azabicyclo[4.1.0]hept-3-en-5-yl)-4-fluorophenyl)ethynyl)pyrazine-2-carbonitrile] | 3.91 µM | 0.086 µM | 1.59 µM | 229 µM | –
18 | N#Cc1ccc(C#Cc2ccc(F)c([C@@]3(CF)N=C(N)S[C@@]4(CF)C[C@H]43)c2)nc1 [Example 101, 6-((3-((1S,5S,6S)-3-amino-1,5-bis(fluoromethyl)-2-thia-4-azabicyclo[4.1.0]hept-3-en-5-yl)-4-fluorophenyl)ethynyl)nicotinonitrile] | 0.271 µM | 0.104 µM | 6.04 µM | 2860 µM | –
19 | CN(C)C(=O)[C@]12C[C@H]1[C@@](C)(c1cc(C#CC3CC3)ccc1F)N=C(N)S2 [Example 132, (1S,5S,6S)-3-amino-5-(5-(cyclopropylethynyl)-2-fluorophenyl)-N,N,5-trimethyl-2-thia-4-azabicyclo[4.1.0]hept-3-ene-1-carboxamide] | 0.059 µM | 0.02 µM | 0.007 µM | 46.8 µM | –
